The source made the active and inactive calls. The rule behind the calls is not given here.
Key:
AGS [1] = assay: Cytotoxicity against human AGS cells assessed as reduction in cell viability measured after 48 hrs by MTT assay; format: functional, cell-based
[2] = Cytotoxicity against human GES1 cells assessed as reduction in cell viability measured after 48 hrs by MTT assay; format: toxicity, cell-based
AGS [3] = assay: Induction of apoptosis in human AGS cells assessed as appearance of bright blue fluorescence at 250 nM measured after 48 hrs by Hoechst 33258 staining based fluorescence microscopy; format: functional, cell-based
HCT-116 = assay: Cytotoxicity against human HCT-116 cells assessed as reduction in cell viability measured after 48 hrs by MTT assay; format: functional, cell-based; details: HCT-116, 48 h
PANC-1 = assay: Cytotoxicity against human PANC-1 cells assessed as reduction in cell viability measured after 48 hrs by MTT assay; format: functional, cell-based; details: PANC-1, 48 h
SMMC-7721 = assay: Cytotoxicity against human SMMC-7721 cells assessed as reduction in cell viability measured after 48 hrs by MTT assay; format: functional, cell-based; details: SMMC-7721, 48 h
AGS [4] = assay: Cytotoxicity against human AGS cells assessed as reduction in cell viability at 10 to 250 nM by MTT assay; format: functional, cell-based; details: dose 10-250 nM, time 24-72 hrs, TDE = time-dependent effect
AGS [5] = assay: Antimigratory activity against human AGS cells measured after 48 hrs by crystal violet staining based transwell assay; format: functional, cell-based; details: dose 10-20 nM, DDE = dose-dependent effect
AGS [6] = assay: Antimigratory activity against human AGS cells assessed as number of migrating cells at 10 to 20 nM measured after 48 hrs by crystal violet staining based transwell assay (reference value: 293); format: functional; details: dose 10-20 nM
AGS [7] = assay: Induction of morphological changes in human AGS cells assessed as cytoplasm concentration at 50 nM measured after 48 hrs; format: functional, cell-based
AGS [8] = assay: Induction of morphological changes in human AGS cells assessed as conversion pf nuclear pyknosis into dense matter at 50 nM measured after 48 hrs; format: functional, cell-based
AGS [9] = assay: Induction of morphological changes in human AGS cells assessed as cell rounding at 50 to 250 nM measured after 48 hrs; format: functional, cell-based; details: dose 50-250 nM
AGS [10] = assay: Induction of morphological changes in human AGS cells assessed as appearance of loosely arranged cells at 50 to 250 nM measured after 48 hrs; format: functional, cell-based; details: dose 50-250 nM
AGS [11] = assay: Induction of morphological changes in human AGS cells assessed as weak cell adhesion at 50 to 250 nM measured after 48 hrs; format: functional, cell-based; details: dose 50-250 nM
AGS [12] = assay: Cell cycle arrest in human AGS cells assessed as accumulation at G0/G1 phase at 10 nM measured after 24 hrs by propidium iodide staining based flow cytometry (reference value: 39.77%); format: functional
AGS [13] = assay: Cell cycle arrest in human AGS cells assessed as accumulation at S phase at 10 nM measured after 24 hrs by propidium iodide staining based flow cytometry (reference value: 43.66%); format: functional
AGS [14] = assay: Cell cycle arrest in human AGS cells assessed as accumulation at G2/M phase at 10 nM measured after 24 hrs by propidium iodide staining based flow cytometry (reference value: 16.56%); format: functional
AGS [15] = assay: Cell cycle arrest in human AGS cells assessed as accumulation at G0/G1 phase at 20 nM measured after 24 hrs by propidium iodide staining based flow cytometry (reference value: 39.77%); format: functional
AGS [16] = assay: Cell cycle arrest in human AGS cells assessed as accumulation at S phase at 20 nM measured after 24 hrs by propidium iodide staining based flow cytometry (reference value: 43.66%); format: functional
AGS [17] = assay: Cell cycle arrest in human AGS cells assessed as accumulation at G2/M phase at 20 nM measured after 24 hrs by propidium iodide staining based flow cytometry (reference value: 16.56%); format: functional
AGS [18] = assay: Induction of apoptosis in human AGS cells assessed as chromatin shrinkage at 250 nM measured after 48 hrs by Hoechst 33258 staining based fluorescence microscopy; format: functional, cell-based
AGS [19] = assay: Induction of apoptosis in human AGS cells assessed as nuclear fragmentation at 250 nM measured after 48 hrs by Hoechst 33258 staining based fluorescence microscopy; format: functional, cell-based
AGS [20] = assay: Induction of apoptosis in human AGS cells assessed as appearance of apoptotic bodies at 250 nM measured after 48 hrs by Hoechst 33258 staining based fluorescence microscopy; format: functional, cell-based
AGS [21] = assay: Induction of apoptosis in human AGS cells measured after 48 hrs by Annexin V-Alexa Fluor 488/propidium iodide staining based flow cytometry; format: functional, cell-based; details: dose 10-250 nM, DDE = dose-dependent effect
AGS [22] = assay: Induction of apoptosis in human AGS cells assessed as viable cells at 10 nM measured after 48 hrs by Annexin V-Alexa Fluor 488/propidium iodide staining based flow cytometry (reference value: 95.6%); format: functional; details: read-out: Activity
AGS [23] = assay: Induction of apoptosis in human AGS cells assessed as early apoptotic cells at 10 nM measured after 48 hrs by Annexin V-Alexa Fluor 488/propidium iodide staining based flow cytometry (reference value: 0.4%); format: functional
AGS [24] = assay: Induction of apoptosis in human AGS cells assessed as late apoptotic cells at 10 nM measured after 48 hrs by Annexin V-Alexa Fluor 488/propidium iodide staining based flow cytometry (reference value: 3.1%); format: functional
AGS [25] = assay: Induction of apoptosis in human AGS cells assessed as necrotic cells at 10 nM measured after 48 hrs by Annexin V-Alexa Fluor 488/propidium iodide staining based flow cytometry (reference value: 0.9%); format: functional
AGS [26] = assay: Induction of apoptosis in human AGS cells assessed as viable cells at 50 nM measured after 48 hrs by Annexin V-Alexa Fluor 488/propidium iodide staining based flow cytometry (reference value: 95.6%); format: functional; details: read-out: Activity
AGS [27] = assay: Induction of apoptosis in human AGS cells assessed as early apoptotic cells at 50 nM measured after 48 hrs by Annexin V-Alexa Fluor 488/propidium iodide staining based flow cytometry (reference value: 0.4%); format: functional
AGS [28] = assay: Induction of apoptosis in human AGS cells assessed as late apoptotic cells at 50 nM measured after 48 hrs by Annexin V-Alexa Fluor 488/propidium iodide staining based flow cytometry (reference value: 3.1%); format: functional
AGS [29] = assay: Induction of apoptosis in human AGS cells assessed as necrotic cells at 50 nM measured after 48 hrs by Annexin V-Alexa Fluor 488/propidium iodide staining based flow cytometry (reference value: 0.9%); format: functional
AGS [30] = assay: Induction of apoptosis in human AGS cells assessed as viable cells at 250 nM measured after 48 hrs by Annexin V-Alexa Fluor 488/propidium iodide staining based flow cytometry (reference value: 95.6%); format: functional; details: read-out: Activity
AGS [31] = assay: Induction of apoptosis in human AGS cells assessed as early apoptotic cells at 250 nM measured after 48 hrs by Annexin V-Alexa Fluor 488/propidium iodide staining based flow cytometry (reference value: 0.4%); format: functional
AGS [32] = assay: Induction of apoptosis in human AGS cells assessed as late apoptotic cells at 250 nM measured after 48 hrs by Annexin V-Alexa Fluor 488/propidium iodide staining based flow cytometry (reference value: 3.1%); format: functional
AGS [33] = assay: Induction of apoptosis in human AGS cells assessed as necrotic cells at 250 nM measured after 48 hrs by Annexin V-Alexa Fluor 488/propidium iodide staining based flow cytometry (reference value: 0.9%); format: functional
AGS [34] = assay: Induction of mitochondrial membrane potential loss in human AGS cells assessed as increase in green fluorescence at 10 to 250 nM measured after 48 hrs by JC-10 staining based fluorescence microscopy; format: functional, cell-based; details: dose 10-250 nM
AGS [35] = assay: Induction of cell cycle arrest in human AGS cells assessed as reduction in CDK1 gene expression at 50 nM measured after 48 hrs by RT-qPCR analysis; format: functional, cell-based
AGS [36] = assay: Induction of cell cycle arrest in human AGS cells assessed as reduction in cyclinB1 gene expression at 50 nM measured after 48 hrs by RT-qPCR analysis; format: functional, cell-based
AGS [37] = assay: Up regulation of E-cadherin expression in human AGS cells at 50 nM measured after 48 hrs by Western blot analysis; format: functional, cell-based
AGS [38] = assay: Increase in PI3KCA mRNA expression in human AGS cells at 50 nM measured after 48 hrs by RT-qPCR analysis; format: functional, cell-based
AGS [39] = assay: Reduction in beta-catenin mRNA expression in human AGS cells at 50 nM measured after 48 hrs by RT-qPCR analysis; format: functional, cell-based
AGS [40] = assay: Increase in GSK-3beta mRNA expression in human AGS cells at 50 nM measured after 48 hrs by RT-qPCR analysis; format: functional, cell-based
AGS [41] = assay: Increase in MEK mRNA expression in human AGS cells at 50 nM measured after 48 hrs by RT-qPCR analysis; format: functional, cell-based
AGS [42] = assay: Down regulation of PI3KCA expression in human AGS cells at 50 nM measured after 48 hrs by Western blot analysis; format: functional, cell-based
AGS [43] = assay: Inhibition of PI3K in human AGS cells assessed as decrease in AKT phosphorylation at 50 nM measured after 48 hrs by Western blot analysis; format: cell-based
AGS [44] = assay: Inhibition of PI3K in human AGS cells assessed as decrease in AKT expression at 50 nM measured after 48 hrs by Western blot analysis; format: cell-based
AGS [45] = assay: Induction of cell cycle arrest in human AGS cells assessed as reduction in CDK1 expression at 50 nM measured after 48 hrs by Western blot analysis; format: functional, cell-based
AGS [46] = assay: Induction of apoptosis in human AGS cells assessed as up regulation of cleaved caspase-3 expression at 50 nM measured after 48 hrs by Western blot analysis; format: functional, cell-based
AGS [47] = assay: Inhibition of PI3K in human AGS cells assessed as decrease in AKT mRNA expression at 50 nM measured after 48 hrs by RT-qPCR analysis; format: cell-based

O=c1[nH]cc(F)c(=O)[nH]1 [FLUOROURACIL]
IC50 (AGS [1]): 58 µM
IC50 at 48 h [2]: > 100 µM

Cn1c2nc3cc(F)ccc3c-2cc2ccccc21
Activity (AGS [3]): Active
IC50 (AGS [1]): 0.043 µM
Activity (AGS [1]; DDE = dose-dependent effect): Dde
IC50 (HCT-116): 18 µM
IC50 (PANC-1): > 50 µM
IC50 (SMMC-7721): 52 µM
IC50 at 48 h [2]: 40 µM
Activity (AGS [4]): Tde
Activity (AGS [5]): Dde
Activity (AGS [6]): 66
Activity (AGS [7]): Active
Activity (AGS [8]): Active
Activity (AGS [9]): Active
Activity (AGS [10]): Active
Activity (AGS [11]): Active
Activity (AGS [12]): 35.82%
Activity (AGS [13]): 42.57%
Activity (AGS [14]): 21.61%
Activity (AGS [15]): 29.43%
Activity (AGS [16]): 45.6%
Activity (AGS [17]): 24.97%
Activity (AGS [18]): Active
Activity (AGS [19]): Active
Activity (AGS [20]): Active
Activity (AGS [21]): Dde
viability at 0.01 µM (AGS [22]): 88.6%
Activity (AGS [23]): 1.8%
Activity (AGS [24]): 7.3%
Activity (AGS [25]): 2.2%
viability at 0.05 µM (AGS [26]): 69.8%
Activity (AGS [27]): 2.9%
Activity (AGS [28]): 17.9%
Activity (AGS [29]): 9.5%
viability at 0.25 µM (AGS [30]): 24.3%
Activity (AGS [31]): 7.7%
Activity (AGS [32]): 37.1%
Activity (AGS [33]): 30.9%
Activity (AGS [34]): Active
Activity (AGS [35]): Active
Activity (AGS [36]): Active
Activity (AGS [37]): Active
Activity (AGS [38]): Active
Activity (AGS [39]): Active
Activity (AGS [40]): Active
Activity (AGS [41]): Active
Activity (AGS [42]): Active
inhibition (AGS [43]): Active
inhibition (AGS [44]): Active
Activity (AGS [45]): Active
Activity (AGS [46]): Active
inhibition (AGS [47]): Active
